Test results from patent US8247211B2, “Glycopeptide antibiotics” (American Cyanamid Company, priority 2001, dated 2012).
In brackets after ≈: the same amount, converted by molar mass.

Legend:
Enterococcus sp. = assay: In vitro antibacterial evaluation: minimum inhibitory concentration (MIC), broth dilution method; assay type: cell-based; settings: 18 hours at 35° C.
How it was run: (§1)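 Using Muller-Hinton II […] and an inoculum of 5×10^5 CFU/mL, antibiotic dilutions from 64 down to 0.06 μg/mL were tested following NCCLS M7-A2. The MIC is the lowest concentration inhibiting growth, including in methicillin-, penicillin- or vancomycin-resistant clinical isolates.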

Streptococcus sp. = assay: as above; assay type: cell-based; settings: 18 hours at 35° C.
How it was run: as §1

Escherichia coli = assay: as above; assay type: cell-based; settings: 18 hours at 35° C.
How it was run: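 Test strains, among them recent clinical isolates carrying methicillin, penicillin and/or vancomycin resistance, were inoculated at 5×10^5 CFU/mL. A broth dilution series spanning 64-0.06 μg/mL in Muller-Hinton II […] (NCCLS M7-A2) defined the MIC as the lowest growth-inhibiting concentration.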

Staphylococcus sp. = assay: as above; assay type: cell-based; settings: 18 hours at 35° C.
How it was run: as §1

[1] = Anatomic pathology (heart and kidney histopathology) in mice; assay type: in vivo, CD-1 mice; settings: 20 mg/kg intravenously daily for 9 days, microscopic histopathology on day 10
How it was run: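 Histopathology on H&E-stained, paraffin-embedded sections, subjectively scored (slight, mild, moderate, marked, severe) relative to untreated controls. Dosing: glycopeptide antibiotics 20 mg/kg intravenously once daily ×9 days in 20-day-old CD-1 mice, n=5 per group including vehicle.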

[2] = test system: Staphylococcus aureus-SMITH (GC 4543); assay: Acute lethal infection in mice (ED50); assay type: in vivo; settings: female CD-1 mice, intraperitoneal challenge, intravenous dose 30 min. after infection, 7 day survival ratios
How it was run: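 ED50 derived from pooled 7-day survival in three separate experiments, five mice per dose level. Single intravenous dose 30 min after intraperitoneal infection of female CD-1 mice with enough bacteria to kill untreated animals in 24-48 h.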

[3] = Enterococcus faecalis (ATCC 29212)
[4] = Enterococcus faecalis (GC 2242)
[5] = Enterococcus faecalis (GC 2691)
[6] = Enterococcus faecalis (GC 3059)
[7] = Enterococcus faecalis (GC 4552)
[8] = Enterococcus faecalis (GC 4553)
[9] = Enterococcus faecalis (GC 4554)
[10] = Enterococcus faecalis (GC 6189)
[11] = broth dilution, inoculum 5×10^5 CFU/mL
[12] = Streptococcus pneumoniae (ATCC 6301)
[13] = Streptococcus pneumoniae (GC 1894)
[14] = Streptococcus pneumoniae (GC 4565)

COc1ccc2cc(COC3C(CO)OC(OC4C(CO)OC(Oc5ccc(CC6NC(=O)C(C(C)c7ccccc7)NC(=O)CNC(=O)C(CO)NC(=O)C(C(O)C7CNC(=N)N7C7OC(CO)C(O)C(O)C7O)NC(=O)C(C(O)C7CNC(=N)N7)NC6=O)cc5)C(O)C4O)C(O)C3O)ccc2c1 (stereo not drawn) [Example 230a, Cyclo[glycyl-β-methylphenylalanyl-O-[4-O-[4-O-[(6-methoxy-2-naphthyl)methyl]hexopyranosyl]hexopyranosyl]tyrosyl-3-(2-iminoimidazolidin-4-yl)seryl-3-(3-hexopyranosyl-2-iminoimidazolidin-4-yl)serylseryl]]
MIC Enterococcus avium (GC 4558) (Enterococcus sp.; Enterococcus avium (GC 4558)): 2 to 4 mg/L
MIC Enterococcus faecalis (ATCC 29212) (Enterococcus sp.; [3]): 2 to 4 mg/L
MIC Enterococcus faecalis (GC 2242) (Enterococcus sp.; [4]): 2 to 4 mg/L
MIC Enterococcus faecalis (GC 2691) (Enterococcus sp.; [5]): 2 to 4 mg/L
MIC Enterococcus faecalis (GC 3059) (Enterococcus sp.; [6]): 2 to 4 mg/L
MIC Enterococcus faecalis (GC 4552) (Enterococcus sp.; [7]): 2 to 4 mg/L
MIC Enterococcus faecalis (GC 4553) (Enterococcus sp.; [8]): 2 to 4 mg/L
MIC Enterococcus faecalis (GC 4554) (Enterococcus sp.; [9]): 2 to 4 mg/L
MIC Enterococcus faecalis (GC 6189) (Enterococcus sp.; [10]): 1 to 4 mg/L
MIC Enterococcus faecium (GC 2243) (Enterococcus sp.; Enterococcus faecium (GC 2243)): 2 to 4 mg/L
MIC Enterococcus faecium (GC 4556) (Enterococcus sp.; Enterococcus faecium (GC 4556)): 2 to 4 mg/L
MIC Enterococcus faecium (GC 4557) (Enterococcus sp.; Enterococcus faecium (GC 4557)): 1 to 2 mg/L
MIC Enterococcus avium (GC 4558) (Enterococcus sp.; [11]): 2 to 4 mg/L
MIC Enterococcus faecalis (ATCC 29212) (Enterococcus sp.; [11]): 2 to 4 mg/L
MIC Enterococcus faecalis (GC 2242) (Enterococcus sp.; [11]): 2 to 4 mg/L
MIC Enterococcus faecalis (GC 2691) (Enterococcus sp.; [11]): 2 to 4 mg/L
MIC Enterococcus faecalis (GC 3059) (Enterococcus sp.; [11]): 2 to 4 mg/L
MIC Enterococcus faecalis (GC 4552) (Enterococcus sp.; [11]): 2 to 4 mg/L
MIC Enterococcus faecalis (GC 4553) (Enterococcus sp.; [11]): 2 to 4 mg/L
MIC Enterococcus faecalis (GC 4554) (Enterococcus sp.; [11]): 2 to 4 mg/L
MIC Enterococcus faecalis (GC 6189) (Enterococcus sp.; [11]): 1 to 4 mg/L
MIC Enterococcus faecium (GC 2243) (Enterococcus sp.; [11]): 2 to 4 mg/L
MIC Enterococcus faecium (GC 4556) (Enterococcus sp.; [11]): 2 to 4 mg/L
MIC Enterococcus faecium (GC 4557) (Enterococcus sp.; [11]): 1 to 2 mg/L
MIC Streptococcus pneumoniae (ATCC 6301) (Streptococcus sp.; [12]): <0.06 mg/L
MIC Streptococcus pneumoniae (GC 1894) (Streptococcus sp.; [13]): <0.06 mg/L
MIC Streptococcus pneumoniae (GC 4565) (Streptococcus sp.; [14]): <0.06 mg/L
MIC Streptococcus pneumoniae (ATCC 6301) (Streptococcus sp.; [11]): <0.06 mg/L
MIC Streptococcus pneumoniae (GC 1894) (Streptococcus sp.; [11]): <0.06 mg/L
MIC Streptococcus pneumoniae (GC 4565) (Streptococcus sp.; [11]): <0.06 mg/L
MIC Escherichia coli (ATCC 25922) (Escherichia coli): 32 mg/L (≈ 21.8 µM)
MIC Escherichia coli (GC 4559) (Escherichia coli): 32 mg/L (≈ 21.8 µM)
MIC Coagulase Negative Staphylococcus (GC 4547) (Staphylococcus sp.): 0.5 to 2 mg/L
MIC Staphylococcus aureus (ATCC 29213) (Staphylococcus sp.): 1 to 2 mg/L
MIC Staphylococcus aureus (GC 1131) (Staphylococcus sp.): 0.5 to 2 mg/L
MIC Staphylococcus aureus (GC 3051) (Staphylococcus sp.): 1 to 2 mg/L
MIC Staphylococcus aureus (GC 3053) (Staphylococcus sp.): 1 to 2 mg/L
MIC Staphylococcus aureus (GC 4541) (Staphylococcus sp.): 0.5 to 2 mg/L
MIC Staphylococcus aureus (GC 4544) (Staphylococcus sp.): 1 to 2 mg/L
MIC Staphylococcus aureus (GC 4545) (Staphylococcus sp.): 0.5 to 1 mg/L
MIC Staphylococcus aureus-SMITH (GC 4543) (Staphylococcus sp.): 0.5 to 2 mg/L
Anatomical Pathology (Day 10), Heart [1]: 0
Anatomical Pathology (Day 10), Kidney [1]: +
median effective dose (ED50), Staphylococcus aureus-SMITH (GC 4543) [2]: 0.06 mg/kg

COc1ccc2cc(COC3C(CO)OC(OC4C(CO)OC(Oc5ccc(CC6NC(=O)C(C(C)c7ccccc7)NC(=O)CNC(=O)C(CO)NC(=O)C(CC7CNC(=N)N7C7OC(CO)C(O)C(O)C7O)NC(=O)C(CC7CNC(=N)N7)NC6=O)cc5)C(O)C4O)C(O)C3O)ccc2c1 (stereo not drawn) [Example 245a, Cyclo[3-(2-iminoimidazolidin-4-yl)alanyl-3-(3-hexopyranosyl-2-iminoimidazolidin-4-yl)-alanylserylglycyl-β-methylphenylalanyl-O-[4-O-[4-O-[(6-methoxy-2-naphthyl)methyl]-hexopyranosyl]hexopyranosyl]tyrosyl]]
MIC Enterococcus avium (GC 4558) (Enterococcus sp.; Enterococcus avium (GC 4558)): 4 mg/L (≈ 2.79 µM)
MIC Enterococcus faecalis (ATCC 29212) (Enterococcus sp.; [3]): 8 mg/L (≈ 5.58 µM)
MIC Enterococcus faecalis (GC 2242) (Enterococcus sp.; [4]): 4 mg/L (≈ 2.79 µM)
MIC Enterococcus faecalis (GC 2691) (Enterococcus sp.; [5]): 8 mg/L (≈ 5.58 µM)
MIC Enterococcus faecalis (GC 3059) (Enterococcus sp.; [6]): 4 mg/L (≈ 2.79 µM)
MIC Enterococcus faecalis (GC 4552) (Enterococcus sp.; [7]): 8 mg/L (≈ 5.58 µM)
MIC Enterococcus faecalis (GC 4553) (Enterococcus sp.; [8]): 4 mg/L (≈ 2.79 µM)
MIC Enterococcus faecalis (GC 4554) (Enterococcus sp.; [9]): 8 mg/L (≈ 5.58 µM)
MIC Enterococcus faecalis (GC 6189) (Enterococcus sp.; [10]): 8 mg/L (≈ 5.58 µM)
MIC Enterococcus faecium (GC 2243) (Enterococcus sp.; Enterococcus faecium (GC 2243)): 4 mg/L (≈ 2.79 µM)
MIC Enterococcus faecium (GC 4556) (Enterococcus sp.; Enterococcus faecium (GC 4556)): 4 mg/L (≈ 2.79 µM)
MIC Enterococcus faecium (GC 4557) (Enterococcus sp.; Enterococcus faecium (GC 4557)): 2 mg/L (≈ 1.4 µM)
MIC Enterococcus faecalis (GC 2242) (Enterococcus sp.; [11]): 4 mg/L (≈ 2.79 µM)
MIC Enterococcus faecalis (GC 2691) (Enterococcus sp.; [11]): 8 mg/L (≈ 5.58 µM)
MIC Enterococcus faecalis (GC 3059) (Enterococcus sp.; [11]): 4 mg/L (≈ 2.79 µM)
MIC Streptococcus agalactiae (GC 4564) (Streptococcus sp.; Streptococcus agalactiae (GC 4564)): 1 mg/L (≈ 0.698 µM)
MIC Streptococcus pneumoniae (ATCC 6301) (Streptococcus sp.; [12]): 0.5 mg/L (≈ 0.349 µM)
MIC Streptococcus pneumoniae (GC 1894) (Streptococcus sp.; [13]): <0.12 mg/L
MIC Streptococcus pneumoniae (GC 4565) (Streptococcus sp.; [14]): 1 mg/L (≈ 0.698 µM)
MIC Streptococcus pyogenes (GC 4563) (Streptococcus sp.; Streptococcus pyogenes (GC 4563)): 1 mg/L (≈ 0.698 µM)
MIC Streptococcus agalactiae (GC 4564) (Streptococcus sp.; [11]): 1 mg/L (≈ 0.698 µM)
MIC Streptococcus pneumoniae (ATCC 6301) (Streptococcus sp.; [11]): 0.5 mg/L (≈ 0.349 µM)
MIC Streptococcus pneumoniae (GC 1894) (Streptococcus sp.; [11]): <0.12 mg/L
MIC Streptococcus pneumoniae (GC 4565) (Streptococcus sp.; [11]): 1 mg/L (≈ 0.698 µM)
MIC Streptococcus pyogenes (GC 4563) (Streptococcus sp.; [11]): 1 mg/L (≈ 0.698 µM)
MIC Escherichia coli (ATCC 25922) (Escherichia coli): 32 mg/L (≈ 22.3 µM)
MIC Escherichia coli (GC 4559) (Escherichia coli): 32 mg/L (≈ 22.3 µM)
MIC Escherichia coli (GC 4560) (Escherichia coli; Escherichia coli (GC 4560)): 2 mg/L (≈ 1.4 µM)
MIC Coagulase Negative Staphylococcus (GC 4547) (Staphylococcus sp.): 2 mg/L (≈ 1.4 µM)
MIC Coagulase Negative Staphylococcus (GC 4548) (Staphylococcus sp.; Coagulase Negative Staphylococcus (GC 4548)): 1 mg/L (≈ 0.698 µM)
MIC Coagulase Negative Staphylococcus (GC 4549) (Staphylococcus sp.; Coagulase Negative Staphylococcus (GC 4549)): 0.5 mg/L (≈ 0.349 µM)
MIC Coagulase Negative Staphylococcus (GC 4551) (Staphylococcus sp.; Coagulase Negative Staphylococcus (GC 4551)): 2 mg/L (≈ 1.4 µM)
MIC Coagulase Negative Staphylococcus (GC 6257) (Staphylococcus sp.; Coagulase Negative Staphylococcus (GC 6257)): 1 mg/L (≈ 0.698 µM)
MIC Staphylococcus aureus (ATCC 29213) (Staphylococcus sp.): 2 mg/L (≈ 1.4 µM)
MIC Staphylococcus aureus (GC 1131) (Staphylococcus sp.): 4 mg/L (≈ 2.79 µM)
MIC Staphylococcus aureus (GC 3051) (Staphylococcus sp.): 2 mg/L (≈ 1.4 µM)
MIC Staphylococcus aureus (GC 3053) (Staphylococcus sp.): 2 mg/L (≈ 1.4 µM)
MIC Staphylococcus aureus (GC 4541) (Staphylococcus sp.): 2 mg/L (≈ 1.4 µM)
MIC Staphylococcus aureus (GC 4542) (Staphylococcus sp.; Staphylococcus aureus (GC 4542)): 2 mg/L (≈ 1.4 µM)
MIC Staphylococcus aureus (GC 4544) (Staphylococcus sp.): 2 mg/L (≈ 1.4 µM)
MIC Staphylococcus aureus (GC 4545) (Staphylococcus sp.): 2 mg/L (≈ 1.4 µM)
MIC Staphylococcus aureus-SMITH (GC 4543) (Staphylococcus sp.): 2 mg/L (≈ 1.4 µM)
MIC Staphylococcus haemolyticus (GC 4546) (Staphylococcus sp.; Staphylococcus haemolyticus (GC 4546)): 1 mg/L (≈ 0.698 µM)
Anatomical Pathology (Day 10), Heart [1]: +
Anatomical Pathology (Day 10), Kidney [1]: +++
median effective dose (ED50), Staphylococcus aureus-SMITH (GC 4543) [2]: 1 mg/kg
